Reference: patent US20200199528A1, “CELL CULTURE MEDIA FOR DIFFERENTIATION OF STEM CELLS INTO HEPATOCYTES” (KATHOLIEKE UNIVERSITEIT LEUVEN, priority 2017, published 2020)

Columns and labels:
[1] = system: HepG2 cells
Experimental: PSC, HC3X and HC6X cells were differentiated in a 384 well format. Cells were treated with 14 different concentrations of compounds in 6 repeats. As a negative control 41 wells were left untreated. After 24 h of exposure media was aspirated and fresh media was added to the cells supplemented with […] of DRAQ 7 (Abcam; ab109202) and Hoechst dye (1/1000, Sigma, 33258) for 25 min at 37°. Cells were fixed with 4% paraformaldehyde. Imaging was done using an Operetta High-Content Imaging System (Perkin Elmer) and image analysis was performed using Harmony software (Perkin Elmer). Relative cell number was calculated as the percentage of living cells (draq7 positive amount subtracted from the Hoechst positive amount) relative to the average of living cells in the control wells. As a positive control, 2 donors of PHHs were seeded at 10 000 cells per well. Drugs were administrated after 8 hours of attachment. HepG2 cells were seeded at 40 000 cells per well. For control conditions HepG2 cells were exposed after 2 days of culture.

[2] = system: HC6X cells
Experimental: We cultured HC6X cells (both in an H9 background and in an) BJ1-iPSc background in 384 well format in AAGLY-supplemented medium.
PSC, HC3X and HC6X cells were differentiated in a 384 well format. Cells were treated with 14 different concentrations of compounds in 6 repeats. As a negative control 41 wells were left untreated. After 24 h of exposure media was aspirated and fresh media was added to the cells supplemented with 0.3 mM of DRAQ 7 (Abcam; ab109202) and Hoechst dye (1/1000, Sigma, 33258) for 25 min at 37°. Cells were fixed with 4% paraformaldehyde. Imaging was done using an Operetta High-Content Imaging System (Perkin Elmer) and image analysis was performed using Harmony software (Perkin Elmer). Relative cell number was calculated as the percentage of living cells (draq7 positive amount subtracted from the Hoechst positive amount) relative to the average of living cells in the control wells. As a positive control, 2 donors of PHHs were seeded at 10 000 cells per well. Drugs were administrated after 8 hours of attachment. HepG2 cells were seeded at 40 000 cells per well. For control conditions HepG2 cells were exposed after 2 days of culture. For AAGLY conditions HepG2 cells were maintained in the supplemented medium for 30 days before exposure.

For `CC(=O)Nc1ccc(O)cc1` [APAP, acetaminophen], the Toxicity [1] was “not able to pick up toxicity” and the Toxicity [2] was “no toxicity”.
